Assays:
[1] = tested on: false cleavers; experiment: Test Example 4: herbicidal effect by soil treatment (Table 19, symbol Q); format: in vivo, false cleavers (Galium spurium); conditions: amount of applied herbicide 320 g/ha
How it was run: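 Herbicidal effect was rated 3 weeks after treatment, using the scoring criteria of an earlier test. The compound, formulated as an emulsion and diluted in water to a set herbicide amount, had been sprayed uniformly on soil over freshly sown seeds. Growth took place in a greenhouse at 25° C. to 30° C.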

[2] = tested on: late watergrass; experiment: Test Example 1: herbicidal activity, application before weed generation under submerged conditions (Table 16, symbol A); format: in vivo, late watergrass (Echinochloa oryzicola); conditions: 320 g/ha applied herbicide
How it was run: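 Submerged Wagner pots (alluvial soil, 4 cm water) sown with weed seeds and planted with 2.5-leaf rice seedlings; emulsifiable concentrate diluted in water applied to water surface on sowing day. Held in greenhouse at 25-30 °C; injury scored 0-5 by herbicidal rate after three weeks.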

[3] = tested on: false cleavers; experiment: Test Example 5: herbicidal effect by foliage application, plastic box (Table 20, symbol Q); format: in vivo, false cleavers (Galium spurium); conditions: foliage application, AAH 320 g/ha, evaluated three weeks after application
How it was run: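 Foliar spray test: emulsion formulation diluted in water to a set application rate, sprayed onto 14-day-old plants raised in diluvial soil at 25° C to 30° C under glass. Both herbicidal effect and crop effect rated visually three weeks later.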

Structure (SMILES): COCC(=O)Oc1c(C)nn(C)c(=O)c1-c1c(-c2ccc(OC(F)F)cc2)sc2ccc(F)cc12 [2-283]
- herbicidal effect on Q: false cleavers [1]: 0 (Herbicidal rate of 5% or less (almost no effect))
- Herbicidal effect on A: late watergrass (grade 0-5) [2]: 3 (Herbicidal rate of 40% or more and less than 70%)
- Q: false cleavers, herbicidal effect (criteria 0-5) [3]: 5 (Herbicidal rate of 90% or more (almost completely withered))
